Results reported in patent publication US10874743B2, “IRAK degraders and uses thereof” (Kymera Therapeutics, Inc., priority 2017, dated 2020).

Target: T1, IRAK4 (Homo sapiens, UniProt Q9NWZ3)
T1 sequence (Q9NWZ3 1-460): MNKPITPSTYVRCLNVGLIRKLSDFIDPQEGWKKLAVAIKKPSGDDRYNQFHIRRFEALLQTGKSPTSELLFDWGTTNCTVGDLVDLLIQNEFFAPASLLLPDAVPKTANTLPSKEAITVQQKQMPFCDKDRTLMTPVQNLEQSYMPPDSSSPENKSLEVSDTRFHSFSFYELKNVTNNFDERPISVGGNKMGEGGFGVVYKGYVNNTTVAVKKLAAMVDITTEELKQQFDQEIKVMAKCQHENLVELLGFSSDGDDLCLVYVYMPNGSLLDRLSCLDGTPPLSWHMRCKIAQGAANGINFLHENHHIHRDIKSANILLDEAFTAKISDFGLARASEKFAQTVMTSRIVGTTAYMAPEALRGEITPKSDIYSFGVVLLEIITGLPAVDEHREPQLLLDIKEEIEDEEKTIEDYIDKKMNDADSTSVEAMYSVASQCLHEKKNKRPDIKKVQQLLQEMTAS
Experiment: OCI-LY-10 degradation assay (western blot, % IRAK4 degraded after 4 hours)
Type: cell-based
Set-up: endogenous in cells; host or cells: OCI-LY10
Conditions: OCI-LY10 cells; for OCI-LY10 % IRAK4 Degradation (0.01 uM) / OCI-LY10 % IRAK4 Degradation (0.1 uM) / OCI-LY10 % IRAK4 Degradation (1 uM): 4 hours; for OCI-LY10 % IRAK4 Degradation (0.01 uM): 0.01 uM compound; for OCI-LY10 % IRAK4 Degradation (0.1 uM): 0.1 uM compound; for OCI-LY10 % IRAK4 Degradation (1 uM): 1 uM compound; for OCI-LY10 % IRAK4 Degradation: IRAK4 degraded after 4 hours, western blot
In short: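 IRAK4 loss after 4 h at 37° C was scored A (>50%), B (>20-50%) or C (<20%) from infrared western blots of RIPA lysates, 20-25 μg protein per lane. Compound was applied at 0.003-10 μM final to OCI-LY10 cells cultured in RPMI-1640 with 20% FBS and 55 μM 2-ME.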

| OCI-LY10 % IRAK4 Degradation (0.01 uM) | OCI-LY10 % IRAK4 Degradation (0.1 uM) | OCI-LY10 % IRAK4 Degradation (1 uM) | OCI-LY10 % IRAK4 Degradation | Structure (SMILES) |
| --- | --- | --- | --- | --- |
| B (>20-50% degradation) | A (>50% degradation) | A (>50% degradation) |  | O=C1CCC(n2c(=O)oc3c(CCCOCCOCCNC(=O)c4ccc(-n5cc(NC(=O)c6coc(-c7ccnc(NCC(F)(F)F)c7)n6)c(C(F)F)n5)cc4)cccc32)C(=O)N1 (stereo not shown) [I-256] |
|  |  |  | C (<20% degradation) | Cc1ncsc1-c1ccc(CNC(=O)[C@@H]2C[C@@H](O)CN2C(=O)[C@@H](NC(=O)COCCOCCOCCOCCOCC(=O)N2CCN([C@H]3CC[C@H](Oc4ncnc5sc6c(c45)[C@@H](C[C@H](O)C(N)=O)CC6)CC3)CC2)C(C)(C)C)cc1 [I-123] |
|  |  |  | C (<20% degradation) | Cc1ccc(NS(=O)(=O)c2ccc(CNC(=O)COCCOCCOCCOCCOCCNC(=O)c3ccc(-n4cc(NC(=O)c5coc(-c6ccnc(NCC(F)(F)F)c6)n5)c(C(N)=O)n4)cc3)cc2)c2[nH]cc(C#N)c12 [I-114] |
| C (<20% degradation) | C (<20% degradation) | C (<20% degradation) |  | O=C1CCC(N2C(=O)c3cccc(NCCNCCOCCNCc4ccc(-n5cc(NC(=O)c6coc(-c7ccnc(NCC8CC8)c7)n6)c(C(F)(F)F)n5)cc4)c3C2=O)C(=O)N1 (stereo not shown) [I-307] |
|  |  |  | B (>20-50% degradation) | CN(CCOCCOCCNc1cccc2c1C(=O)N(C1CCC(=O)NC1=O)C2=O)C(=O)[C@H]1C[C@H](NC(=O)c2cnc(Nc3ccc4cnccc4n3)cc2NC2CC2)C1 (stereo partly shown) [I-44, 6-((1,6-naphthyridin-2-yl)amino)-4-(cyclopropylamino)-N-((1r,3r)-3-((2-(2-(2-((2-(2,6-dioxopiperidin-3-yl)-1,3-dioxoisoindolin-4-yl)amino)ethoxy)ethoxy)ethyl)(methyl)carbamoyl)cyclobutyl)nicotinamide] |
| C (<20% degradation) | B (>20-50% degradation) | B (>20-50% degradation) |  | O=C1CCC(N2C(=O)c3cccc(CCCOCCOCCNC(=O)c4ccc(-n5cc(NC(=O)c6coc(-c7ccnc(NCC8CC8)c7)n6)c(C(F)F)n5)cc4)c3C2=O)C(=O)N1 (stereo not shown) [I-244] |
|  |  |  | C (<20% degradation) | N#Cc1cnc2c(cnn2-c2cc(NC3CC3)c(C(=O)NCC(F)COCCOCCNC(=O)COc3cccc4c3C(=O)N(C3CCC(=O)NC3=O)C4=O)cn2)c1 (stereo not shown) [I-95, 6-(5-Cyanopyrazolo[3,4-b]pyridin-1-yl)-4-(cyclopropylamino)-N-[3-[2-[2-[[2-[2-(2,6-dioxo-3-piperidyl)-1,3-dioxo-isoindolin-4-yl]oxyacetyl]amino]ethoxy]ethoxy]-2-fluoro-propyl]pyridine-3-carboxamide] |
|  |  |  | C (<20% degradation) | CC(OCCNc1cccc2c1C(=O)N(C1CCC(=O)NC1=O)C2=O)C(F)CNC(=O)c1cnc(Nc2ccc3cnccc3n2)cc1NC1CC1 (stereo not shown) [I-77] |
| C (<20% degradation) | C (<20% degradation) | C (<20% degradation) |  | NC(=O)c1nn(-c2ccc(C(=O)NCCCCCNCCNc3cccc4c3C(=O)N(C3CCCNC3=O)C4=O)cc2)cc1NC(=O)c1coc(-c2ccnc(NCC(F)(F)F)c2)n1 (stereo not shown) [I-333] |
| C (<20% degradation) | B (>20-50% degradation) | A (>50% degradation) |  | O=C1CCC(N2C(=O)c3cccc(NCCc4cnnn4CCOCCOCCNCc4ccc(-n5cc(NC(=O)c6coc(-c7ccnc(NCC8CC8)c7)n6)c(C(F)F)n5)cc4)c3C2=O)C(=O)N1 (stereo not shown) [I-342] |
| B (>20-50% degradation) | B (>20-50% degradation) | B (>20-50% degradation) |  | O=C1CCC(N2C(=O)c3cccc(NCCOCCOCCNC(=O)c4ccc(-n5cc(NC(=O)c6coc(-c7ccnc(NCC8CC8)c7)n6)c(C(F)(F)F)n5)cc4)c3C2=O)C(=O)N1 (stereo not shown) [I-220] |
| C (<20% degradation) | B (>20-50% degradation) | A (>50% degradation) |  | O=C1CCC(N2C(=O)c3cccc(NCCCCCNCCNC(=O)c4ccc(-n5cc(NC(=O)c6coc(-c7ccnc(NCC8CC8)c7)n6)c(C(F)F)n5)cc4)c3C2=O)C(=O)N1 (stereo not shown) [I-245] |
|  |  |  | C (<20% degradation) | CC(C)(OCCNc1cccc2c1C(=O)N(C1CCC(=O)NC1=O)C2=O)C(F)CNC(=O)c1cnc(-n2ncc3cc(C#N)cnc32)cc1NC1CC1 (stereo not shown) [I-75] |
|  |  |  | C (<20% degradation) | N#Cc1cnc2c(cnn2-c2cc(NC3CC3)c(C(=O)N[C@H]3C[C@H](COCCOCCOCCOCCOCCNc4cccc5c4C(=O)N(C4CCC(=O)NC4=O)C5=O)C3)cn2)c1 (stereo partly shown) [I-36] |
| C (<20% degradation) | A (>50% degradation) | A (>50% degradation) |  | O=C1CCC(N2C(=O)c3cccc(NCCOCCOCCNC(=O)c4ccc(-n5cc(NC(=O)c6coc(-c7ccnc(NCC8CC8)c7)n6)c(C(F)F)n5)cc4)c3C2=O)C(=O)N1 (stereo not shown) [I-246] |
| C (<20% degradation) | C (<20% degradation) | C (<20% degradation) |  | O=C1CCC(N2C(=O)c3cccc(CCCOCCNC(=O)c4ccc(-n5cc(NC(=O)c6coc(-c7ccnc(NCC8CC8)c7)n6)c(C(F)F)n5)cc4)c3C2=O)C(=O)N1 (stereo not shown) [I-243] |
|  |  |  | C (<20% degradation) | Cc1ncsc1-c1ccc(CNC(=O)[C@@H]2C[C@@H](O)CN2C(=O)[C@@H](NC(=O)COCCCCCOCCCCCNC(=O)CN2CCC(Nc3cccc(-c4cnc5ccc(C#N)cn45)n3)C2)C(C)(C)C)cc1 (stereo partly shown) [I-205] |
|  |  |  | C (<20% degradation) | O=C1CCC(N2C(=O)c3cccc(OCC(F)CNC(=O)c4cnc(Nc5ccc6cnccc6n5)cc4NC4CC4)c3C2=O)C(=O)N1 (stereo not shown) [I-174, 4-(Cyclopropylamino)-N-[3-[2-(2,6-dioxo-3-piperidyl)-1,3-dioxo-isoindolin-4-yl]oxy-2-fluoro-propyl]-6-(1,6-naphthyridin-2-ylamino)pyridine-3-carboxamide] |
| B (>20-50% degradation) | A (>50% degradation) | A (>50% degradation) |  | CN(CCOCCOCCCc1ccc2c(c1)C(=O)N(C1CCC(=O)NC1=O)C2=O)Cc1ccc(-n2cc(NC(=O)c3coc(-c4ccncc4)n3)c(C(N)=O)n2)cc1 (stereo not shown) [I-309] |
|  |  |  | C (<20% degradation) | CC(C)(OCCOCCOCCNc1cccc2c1C(=O)N(C1CCC(=O)NC1=O)C2=O)C(F)CNC(=O)c1cnc(Nc2ccc3cnccc3n2)cc1NC1CC1 (stereo not shown) [I-56] |
| B (>20-50% degradation) | A (>50% degradation) | B (>20-50% degradation) |  | NC(=O)c1nn(-c2ccc(CNCCOCCOCCCc3cccc4c3CN(C3CCC(=O)NC3=O)C4=O)cc2)cc1NC(=O)c1coc(-c2ccnc(NCC3CC3)c2)n1 (stereo not shown) [I-324] |
| C (<20% degradation) | B (>20-50% degradation) | B (>20-50% degradation) |  | CN(CCCc1ccc2c(c1)C(=O)N(C1CCC(=O)NC1=O)C2=O)Cc1ccc(-n2cc(NC(=O)c3coc(-c4ccnc(NCC(F)(F)F)c4)n3)c(C(F)F)n2)cc1 (stereo not shown) [I-374] |
|  |  |  | A (>50% degradation) | NC(=O)c1nn(-c2ccc(COCCOCCOCCOCCNC(=O)COc3cccc4c3C(=O)N(C3CCC(=O)NC3=O)C4=O)cc2)cc1NC(=O)c1coc(-c2ccnc(NCC(F)(F)F)c2)n1 (stereo not shown) [I-105, N-[3-carbamoyl-1-[4-[2-[2-[2-[2-[[2-[2-(2,6-dioxo-3-piperidyl)-1,3-dioxo-isoindolin-4-yl]oxyacetyl]amino]ethoxy]ethoxy]ethoxy]ethoxymethyl]phenyl]pyrazol-4-yl]-2-[2-(2,2,2-trifluoroethylamino)-4-pyridyl]oxazole-4-carboxamide] |
|  |  |  | C (<20% degradation) | NC(=O)c1nn(C2CN(CCOCCOCCOCCNc3cccc4c3C(=O)N(C3CCC(=O)NC3=O)C4=O)C2)cc1NC(=O)c1coc(-c2ccnc(NCC(F)(F)F)c2)n1 (stereo not shown) [I-169, N-[3-carbamoyl-1-[1-[2-[2-[2-[2-[[2-(2,6-dioxo-3-piperidyl)-1,3-dioxo-isoindolin-4-yl]amino]ethoxy]ethoxy]ethoxy]ethyl]azetidin-3-yl]pyrazol-4-yl]-2-[2-(2,2,2-trifluoroethylamino)-4-pyridyl]oxazole-4-carboxamide] |
| C (<20% degradation) | C (<20% degradation) | B (>20-50% degradation) |  | O=C1CCC(N2C(=O)c3ccc(CCCOCCNCc4ccc(-n5cc(NC(=O)c6coc(-c7ccncc7)n6)c(C(F)F)n5)cc4)cc3C2=O)C(=O)N1 (stereo not shown) [I-382] |
|  |  |  | C (<20% degradation) | CN(CCOCCOCCOCCOCCNc1cccc2c1C(=O)N(C1CCC(=O)NC1=O)C2=O)C(=O)[C@H]1CC[C@H](NC(=O)c2cnc(-n3ncc4cc(C#N)cnc43)cc2NC2CC2)CC1 (stereo partly shown) [I-38] |
